Test results reported in patent publication US8598203B2 (Teva Pharmaceutical Industries, Ltd., priority 2009, dated 2013).

What was measured:
[1] = background statement; cited from earlier work
[2] = previous pharmacokinetic studies of laquinimod (time to steady state, oral bioavailability); assay type: in vivo; settings: with loading dose regimen (double the intended dose for the first two days)
Excerpt: In order to decrease thee time to steady state and potentially decrease time to response, a loading dose regimen described below is used to allow steady state levels to be reached in approximately 6-7 days.

[3] = system: subjects with moderate to severe Crohn's disease (CDAI score of 220-450); test: Phase IIa clinical trial of oral laquinimod in active moderate to severe Crohn's disease; assay type: in vivo, human; settings: for dependence on steroids: moderate to severe Crohn's disease; for C-Reactive Protein level / clinical remission / clinical response / disease progression and/or disease complication / fecal calprotein level / number of open draining fistulas / symptoms of Crohn's disease: moderate to severe Crohn's disease (CDAI 220-450)
Description: Overall up to ˜180 Crohn's disease patients are enrolled. […] The capsules were prepared using a blend proportional to the 0.6 mg capsules described in PCT International Application No. PCT/US2007/013721 (WO 2007/146248). The capsules were prepared according to the method described in PCT International Application No. PCT/US2007/013721 (WO 2007/146248), which is hereby incorporated by reference into this application. A loading dose regimen of double the maintenance/intended dose is given during the first two days of study drug treatment. Thereafter, starting on day 3, the daily maintenance/intended dose is administered. Subjects are required to maintain CDAI diary cards for each day of the screening period and, if randomized, on each day of the treatment and follow-up period. The scores obtained from the seven consecutive diaries completed prior to the baseline visit and to each of weeks 1, 2, 4, 6, 8 and 12 contribute to a total CDAI score at each of the time points. Moderate to severe Crohn's disease (CD) subjects as determined by a Crohn's Disease Activity Index (CDAI) score of 220-450 (inclusive). […] Each dose is studied sequentially in a distinct cohort. Scheduled in-clinic visits are conducted at screening, baseline and at weeks 1, 2, 4, 6 and 8. […] Subjects who early-discontinues study drug prior to visit week 8 go to follow-up termination visit within 4 weeks (28 days) of study drug discontinuation. A loading dose regimen of the study drug is given during the first two days of treatment (day 1/baseline and thereafter). The first loading dose of the study is administered at the site. The loading dose is double the intended dose for the first two days and is administered twice daily (BID) with 12 hour interval between dosing. Thereafter, starting on day 3, the dosing regimen consists of the intended dose once daily (QD) (see Table 1): • 1. Day 1 (Baseline): loading dose of the drug (intended dose at 0 hour, at the site and intended dose at 12 hours). Total dose is twice the intended dose. • 2. Day 2: loading dose of the study drug (intended dose at 0 hour and intended dose at 12 hours). Total dose is twice the intended dose. • 3. Day 3: Intended/maintenance dose of the study drug. […] Proportion of subjects in clinical remission (total CDAI score <150) at weeks 4, 6, 8 and 12. • 2. Proportion of subjects who respond to treatment (decrease from baseline of at least 100 points in CDAI score ore remission) at week 4, 6, 8 and 12. • 3. Time to remission. • 4. Time to response. • 5. C-Reactive Protein (CRP) change from baseline at weeks 2, 4, 6, 8 and 12. • 6. Fecal calprotectin change from baseline to weeks 2, 4, 6, 8 and 12. • 7. Proportion of subjects with a decrease from baseline of at least 50% in the number of open draining fistulas. Safety/Tolerability • 1. Adverse events (AEs). • 2. Clinical laboratory values. • 3. Vital signs. • 4. ECG. • 5. Proportion of subjects who prematurely discontinue treatment. • 6. Proportion of subjects who prematurely discontinue treatment due to AEs. • 7. Time to premature treatment discontinuation. • 8. Time to premature treatment discontinuation due to AEs. Determination of the Highest Tolerable Dose

CCN(C(=O)c1c(O)c2c(Cl)cccc2n(C)c1=O)c1ccccc1 [laquinimod]
inhibits: disease progression and/or disease complication ([3]; 0.5 mg/day oral) | disease progression and/or disease complication ([3]; 1.0 mg/day oral) | disease progression and/or disease complication ([3]; 1.5 mg/day oral) | disease progression and/or disease complication ([3]; 2.0 mg/day oral)
induces: clinical response ([3]; 0.5 mg/day oral) | clinical response ([3]; 1.0 mg/day oral) | clinical response ([3]; 1.5 mg/day oral) | clinical response ([3]; 2.0 mg/day oral)
induces and/or maintains: clinical remission ([3]; 0.5 mg/day oral) | clinical remission ([3]; 1.0 mg/day oral) | clinical remission ([3]; 1.5 mg/day oral) | clinical remission ([3]; 2.0 mg/day oral)
6 to 7 days: time to reach steady state levels [2]
high oral bioavailability: oral bioavailability [1]
reduces: number of open draining fistulas ([3]; 0.5 mg/day oral) | symptoms of Crohn's disease ([3]; 0.5 mg/day oral) | number of open draining fistulas ([3]; 1.0 mg/day oral) | symptoms of Crohn's disease ([3]; 1.0 mg/day oral) | number of open draining fistulas ([3]; 1.5 mg/day oral) | symptoms of Crohn's disease ([3]; 1.5 mg/day oral) | number of open draining fistulas ([3]; 2.0 mg/day oral) | symptoms of Crohn's disease ([3]; 2.0 mg/day oral)
lowers: dependence on steroids ([3]; 0.5 mg/day oral) | C-Reactive Protein level ([3]; 0.5 mg/day oral) | fecal calprotein level ([3]; 0.5 mg/day oral) | dependence on steroids ([3]; 1.0 mg/day oral) | C-Reactive Protein level ([3]; 1.0 mg/day oral) | fecal calprotein level ([3]; 1.0 mg/day oral) | dependence on steroids ([3]; 1.5 mg/day oral) | C-Reactive Protein level ([3]; 1.5 mg/day oral) | fecal calprotein level ([3]; 1.5 mg/day oral) | dependence on steroids ([3]; 2.0 mg/day oral) | C-Reactive Protein level ([3]; 2.0 mg/day oral) | fecal calprotein level ([3]; 2.0 mg/day oral)
